ChEMBL document CHEMBL1157539, “Thousands of chemical starting points for antimalarial lead identification” (Nature, 2010)

Tested on: Plasmodium falciparum
Test: GSK_TCMDC: Inhibition of Plasmodium falciparum 3D7 in whole erythrocytes, using parasite LDH activity as an index of growth.
Assay type: functional, organism-based
Settings: Plasmodium falciparum, 3D7

| Structure (SMILES) | XC50 [nM] |
| --- | --- |
| O=C(N[C@H](CC1CCCCC1)C(=O)NC1CCCc2ccccc21)c1ccc(O)c(-c2cccc([N+](=O)[O-])c2)c1 (stereo partly drawn) | 610 |
| OC(CNCc1ccccc1OCc1ccccc1)c1cc(Br)cs1 (stereo not drawn) | 722 |
| CN(C)C(C)(C)CN(Cc1ccc(-c2ccc(C(F)(F)F)cc2)cc1)C(=O)Cn1c(CCc2cccc(F)c2F)nc(=O)c2ccccc21 | 827 |
| CC=CCON1C(=N)NC(=N)NC1(C)C | 27.9 |
| O=C(NCCc1cccc(Cl)c1Cl)c1ccc(N2CCN(c3ccncc3)CC2)nc1 | 1060 |
| O=S(=O)(Nc1cccc(CCN2CCCCC2CCN2CCCC2)c1)c1ccc(Oc2ccccc2)cc1 (stereo not drawn) | 1050 |
| COc1cccc(NC(=O)Nc2c(-c3cccc(C(F)(F)F)c3)c(C(F)(F)F)nn2C)c1 | 911 |
| c1ccc(-n2ncc(CNCc3ccc(-c4ccc(-c5nc6ccccc6[nH]5)s4)cc3)n2)cc1 | 1400 |
| CO/C(=C\C=C\c1cc2cc(Cl)c(Cl)cc2[nH]1)C(=O)NCCCN1CCN(C2CCCCC2)CC1 | 1010 |
| CC(C)N1CCC(Oc2ccc(CN3CCN(C(c4ccccc4)c4ccc(Cl)cc4)CC3)cc2)CC1 (stereo not drawn) | 937 |
| CC(C)N(CCOc1ccc2c(c1)N(C(=O)Nc1ccc(Cl)c(Cl)c1)CC2)C(C)C | 367 |
| OC(CNCc1ccccc1OCc1ccccc1)c1cccc(Br)c1 (stereo not drawn) | 643 |
| Oc1ccc(CCNc2nc(NCCOc3cccc4ccccc34)nc(N3CCNCC3)n2)cc1 | 901 |
| COc1ccc(-c2cccc(NC(=O)c3ccc(C#N)cc3)c2)cc1CN1CCCN(C)CC1 | 756 |
| CC(C)(C)c1ccc(C(=O)Nc2cccc(Nc3c(C(=O)NCc4cccc(C(F)(F)F)c4)cnc4c(O)cccc34)c2)cc1 | 1090 |
| CCc1cc(Br)c2c(c1)C(NCCCNc1cc(=O)c3ccccc3[nH]1)CCN2 (stereo not drawn) | 852 |
| COc1cc(N)c(Cl)cc1C(=O)NC1CCC(NCC2CCCCC2)CC1 (stereo not drawn) | 426 |
| CCOc1ccc(NC(=O)c2ccc(CN3CCCN(Cc4cccc(O)c4)CC3)cc2)cc1 | 1310 |
| O=C(Nc1cc(F)cc(-c2cccnc2)c1)c1ccc2c(=O)n(Cc3ccccc3)cnc2c1 | 1330 |
| CCOC(=O)c1c[nH]c2c(ccc3ccccc32)c1=O | 157 |
| CNCc1cccc(-c2ccc3ccnc(N)c3c2)c1 | 93.1 |
| O=C(Nc1ccc(Cl)cc1)Nc1ccc(-c2ccc(-c3nc4ccccc4[nH]3)cc2)cc1 | 50.7 |
| COc1cc(C(=O)Nc2cccc(-c3cn4cccc(C)c4n3)c2)cc(OC)c1OC | 697 |
| O=c1cc(NCCCNCc2cc3c(Cl)cc(Cl)cc3[nH]2)[nH]c2ccccc12 | 862 |
| CCCCOP(=O)(OCCCC)C(=Cc1ccc(O)c2ccccc12)P(=O)(OCCCC)OCCCC | 1070 |

| Structure (SMILES) | XC50 [nM] |
| --- | --- |
| COc1cc2ccccc2cc1CNCCCCCCNCc1cc2ccccc2cc1OC | 720 |
| Cc1ccc(C2(C)CN(CCCOc3cccc(-c4ccc(C(=O)NC(C)C)cc4)c3)CCO2)cc1 (stereo not drawn) | 960 |
| CCOc1ccc(-c2nonc2NC(=O)c2ccccc2OC)cc1OCC | 241 |
| CC(C)Cc1csc(NC(=O)C=Cc2ccco2)c1C(=O)O | 305 |
| COc1ccc2c(c1)Sc1ccccc1C(N1CCN(CCO)CC1)C2 (stereo not drawn) | 1390 |
| Cc1cccc2nc(-c3cccc(-c4cccc(CN5CCCC5CN)c4)c3)[nH]c12 (stereo not drawn) | 767 |
| COc1ccc(C#Cc2ccc(-c3c(C)[nH]c(C)c(Cl)c3=O)cc2)cc1 | 66.5 |
| O=C(Nc1cccc(C(F)(F)F)c1)c1cc([N+](=O)[O-])cc2cn[nH]c12 | 995 |
| O=[N+]([O-])c1cc(C(c2ccc(O)c([N+](=O)[O-])c2)C(Cl)(Cl)Cl)ccc1O | 734 |
| O=C(Nc1ccc(-c2cccc(-c3nc4ccccc4[nH]3)c2)cc1)Nc1ccc(F)c(F)c1F | 182 |
| N#Cc1ccc(N2CCN(Cc3cccc(-c4ccc(-c5nc6ccccc6[nH]5)cc4)c3)CC2)nc1 | 1240 |
| CC(C)n1ncc2c3c(N)nc(N)nc3ccc21 | 333 |
| Nc1cccc(CNCc2cccc(-c3csc(-c4nc5ccccc5[nH]4)c3)c2)c1 | 685 |
| Cc1cccc(CNc2nc(C)cc(N[C@@H](Cc3ccccc3)C(=O)NCCOc3ccccc3)n2)c1 | 914 |
| COc1ccc(-c2cccc(NC(=O)c3cccc(C#N)c3)c2)cc1CNC(C)C | 694 |
| Oc1ccc2[nH]c(-c3cccc(F)c3)nc2c1CN1CCC(N2CCCC2)CC1 | 184 |
| COc1ccccc1CCCN1C(=O)C(c2ccccc2)(c2ccccc2)N=C1N | 265 |
| CC(C)c1cc(C(=O)N[C@@H](Cc2ccccc2)[C@H](O)CNC2CCCCC2)cc(N2CCCC2=O)c1 | 121 |
| CN1CCN(c2cc3c(cc2Cl)CCN3C(=O)Cc2ccc(Cl)c(NC(=O)Nc3cccc([N+](=O)[O-])c3)c2)CC1 | 718 |
| O=C(Nc1cccc(CN2CCN(Cc3ccc(O)cc3)CC2)c1)c1cc2ccccc2s1 | 682 |
| CCCCCCC(C)c1cc(O)c2c(c1)OC(=O)CC2(CC)c1ccccn1 (stereo not drawn) | 335 |
| COc1ccc(F)cc1-c1ccccc1CNC(=O)c1cnn(-c2ccc([N+](=O)[O-])cc2)c1C(F)(F)F | 596 |
| O=C(Nc1cccc(CN2CCCN(CCc3ccccc3)CC2)c1)c1ccc(Cl)c(Cl)c1 | 952 |
| C=CCn1c(=N)c(C(=O)NC2CCCCC2)cc2c(=O)n3cccc(C)c3nc21 | 1040 |
| COc1ccc(Nc2nc(NCc3cccnc3)cc(-c3ccc(OC)cc3)n2)cc1 | 1400 |

| Structure (SMILES) | XC50 [nM] |
| --- | --- |
| O=C(CCc1c[nH]cn1)Nc1cccc(-c2ccc(-c3nc4ccccc4[nH]3)s2)c1 | 759 |
| O=C(CC1SC(N2N=C(c3cccs3)CC2c2ccccc2)=NC1=O)Nc1ccc(Cl)cc1 (stereo not drawn) | 1680 |
| Fc1ccc(-c2nc(NCc3cccc(C(F)(F)F)c3)nn2-c2cccc(C(F)(F)F)c2)cc1C(F)(F)F | 1050 |
| Nc1c(Cl)cc(C(O)CNCCCCCCOCCc2ccc(O)cc2)cc1Cl (stereo not drawn) | 725 |
| Cc1cc(NC(=O)c2cccs2)ccc1OC1CCN(Cc2ccccc2)CC1 | 874 |
| OCC1CCN(Cc2ccc(-c3cccc(-c4nc5cc(F)ccc5[nH]4)c3)cc2)CC1 | 910 |
| N#Cc1cccc(NC(=O)Nc2cccc(OC3CCN(Cc4ccccc4)CC3)c2)c1 | 841 |
| CC(C)CN(c1nc(C(=O)NNC(=O)[C@H](CC2CC2)NC(=O)c2cc3cc(OCCN4CCCCC4)ccc3o2)cs1)C1CC1 | 213 |
| CCCN(C(=O)c1ccccc1C)c1nnc(-c2ccccc2C)s1 | 1110 |
| c1ccc(CNCc2ccc(-c3cccc(-c4nc5ccccc5[nH]4)c3)cc2)cc1 | 422 |
| NC1CCN(CCc2ccc(NS(=O)(=O)c3ccc(-c4ccccc4)cc3)cc2)CC1 | 1020 |
| Clc1cc(Nc2ncnc3cc(C#C[C@H]4CCCN4)sc23)cc2nc(Cc3ccccc3)[nH]c12 | 852 |
| COc1ccc(Nc2nccc(N3CCC(NC(=O)Nc4cc(C)ccc4C)C3)n2)cc1 (stereo not drawn) | 901 |
| CCCCOc1cc(CNCCCCCCNCc2cc(OCCCC)cc3ccccc23)c2ccccc2c1 | 736 |
| CN1CCN(CCCCCCNc2c3ccccc3nc3ccccc23)CC1 | 722 |
| Nc1ncc(-c2ccsc2)c2ccc(-c3ccc4cn[nH]c4c3)cc12 | 814 |
| Fc1ccc2[nH]c(-c3cccc(-c4ccc(CNCC5CCCO5)cc4)c3)nc2c1 (stereo not drawn) | 541 |
| CC(C)CNCc1ccc(-c2cccc(CN(CCN(C)C)C(=O)NCCc3ccccc3)c2)cc1 | 1060 |
| O=C(Nc1ccc(N2CCN(Cc3c[nH]c4cc(F)ccc34)CC2)cc1)c1ccccc1-c1ccc(C(F)(F)F)cc1 | 985 |
| OCCN1CCN(Cc2cccc(-c3ccc(-c4nc5cc(C(F)(F)F)ccc5[nH]4)s3)c2)CC1 | 86.7 |
| O=C(N[C@@H](CC1CCCCC1)C(=O)NC1CC1)c1ccc(O)c(-c2cccc(C(F)(F)F)c2)c1 | 773 |
| Cn1c(N=C2NC3(c4ccccn4)NC(=Nc4nc5ccccc5n4C)NC3(c3ccccn3)N2)nc2ccccc21 (stereo not drawn) | 1040 |
| O=C(CCCCCNC(=O)c1ccc(O)c(-c2ccc(Cl)c(Cl)c2)c1)NCCc1ccc(Cl)c(Cl)c1 | 756 |
| CCCCN1CCN(CCCCNc2c3ccccc3nc3ccccc23)CC1 | 167 |
| COc1ccc(CNC(=O)NC2CCN(c3ccnc(Nc4ccc(F)cc4)n3)CC2)cc1 | 1050 |

| Structure (SMILES) | XC50 [nM] |
| --- | --- |
| COc1cccc(Cn2ccc3c4c(N)nc(N)nc4ccc32)c1 | 3.2 |
| CN(C)c1ccc(C=C2SC(=N)N(c3nccs3)C2=O)cc1 | 461 |
| Cc1cc(-c2ncc[nH]2)ccc1-c1ccc(C(=O)N2CCc3cc4c(cc32)C2(CCN(C)CC2)CO4)cc1 | 800 |
| CN(C)CCCN(C)c1cccc2c1nc(-c1cccnc1)n2CCNCc1ccccc1 | 1390 |
| COc1ccc2c(=NN=Cc3cccc(C)n3)cc(-c3ccccc3)[nH]c2c1 | 751 |
| COC(=O)c1ccc(CC(C)NCC(O)c2cccc(C(F)(F)F)c2)c(Cl)c1 (stereo not drawn) | 854 |
| Nc1nc(N)c2c(Oc3cc(Cl)c(Cl)c(Cl)c3)cccc2n1 | 804 |
| CN(C)CCCN1C(=O)c2[nH]nc(-c3ccc(Cl)cc3O)c2C1c1ccc(Cl)cc1 (stereo not drawn) | 758 |
| COc1ccc(CNC(=O)c2cnc3c(O)cccc3c2Nc2cccc(NC(=O)c3ccc(Cl)c(Cl)c3)c2)cc1 | 604 |
| NC(=O)NC(=O)C=Cc1ccco1 | 150 |
| CCOc1ccc(-c2nonc2NC(=O)c2ccc(OC(C)C)cc2)cc1OCC | 601 |
| O=C(C=Cc1ccc(Cl)c(Cl)c1)NCCCCCN1CCC(CCNS(=O)(=O)c2ccc(Br)cc2)CC1 | 1120 |
| COc1cc2nc(SCCCC#N)n(C3CCCCCC3)c(=N)c2cc1OC | 1140 |
| COc1ccc2nccc(NC(=O)C3(O)CCC(NCc4ccc5c(c4)NCCS5)CC3)c2n1 (stereo not drawn) | 598 |
| CC(C)CN(Cc1c(O)ccc2[nH]c(-c3ccc(F)cc3F)nc12)CC(C)C | 802 |
| CN(C)C1CCN(CC#Cc2cc3ncnc(Nc4ccc(OCc5cccc(F)c5)c(Cl)c4)c3s2)CC1 | 887 |
| O=C(Nc1ccc(CN2CCC(c3c[nH]c4ccc(O)cc34)CC2)cc1)c1ccc(-c2ccccc2)cc1 | 253 |
| O=C(/C=C/c1ccc(Cl)c(Cl)c1)NC1CCC(CN2CCC(c3nc4cccnc4[nH]3)CC2)CC1 (stereo not drawn) | 1230 |
| CCN(CC)CCN1C(=O)C(O)(c2ccccc2Cl)c2c1cc(C#N)cc2C(F)(F)F (stereo not drawn) | 947 |
| O=C(/C=C/c1ccc(Cl)c(Cl)c1)NCCCCCN1CCC(NC(=O)Nc2cc(Cl)nc(Cl)c2)CC1 | 976 |
| Cc1cc(C)c2nc(N3CCC(C(=O)NCCCN4CCC(N5CCCCC5)CC4)CC3)sc2c1 | 838 |
| COc1coc(C(=O)NC2CCN(CC3(c4ccc(Cl)cc4)CCC3)CC2)c1OC | 164 |
| CC(NC(=O)c1cc(-c2ccccc2)nc2c1cnn2C(C)C)C1CC1 (stereo not drawn) | 1280 |
